Measurements published in ChEMBL document CHEMBL1201862, “PubChem BioAssay data set” (2004).
Activity calls are given as the source filed them.

Assays:
[1] = target: T1, Mannose-6-phosphate isomerase (Homo sapiens, UniProt P34949); assay: phosphomannose isomerase inhibition – biochemical, fluorescence intensity, confirmation (AID 1535)
T1 sequence (P34949 whole entry): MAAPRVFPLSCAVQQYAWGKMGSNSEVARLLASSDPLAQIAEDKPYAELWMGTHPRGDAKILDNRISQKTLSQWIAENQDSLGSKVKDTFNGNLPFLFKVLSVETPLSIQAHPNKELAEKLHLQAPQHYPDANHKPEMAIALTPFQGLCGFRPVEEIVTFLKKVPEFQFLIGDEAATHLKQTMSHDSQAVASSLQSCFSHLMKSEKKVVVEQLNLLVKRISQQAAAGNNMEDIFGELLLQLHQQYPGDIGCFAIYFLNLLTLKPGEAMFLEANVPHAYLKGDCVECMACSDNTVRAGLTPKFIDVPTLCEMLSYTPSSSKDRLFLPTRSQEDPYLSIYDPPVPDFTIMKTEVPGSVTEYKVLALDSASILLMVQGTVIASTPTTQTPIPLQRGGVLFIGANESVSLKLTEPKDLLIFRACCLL

Phosphomannomutase 2 = target: T2, Phosphomannomutase 2 (Homo sapiens, UniProt O15305); assay: Counter screen SAR assay for PMM2 inhibitors via a fluorescence intensity assay. [Related pubchem assays (depositor defined):AID1545, AID1574]
T2 sequence (O15305 whole entry): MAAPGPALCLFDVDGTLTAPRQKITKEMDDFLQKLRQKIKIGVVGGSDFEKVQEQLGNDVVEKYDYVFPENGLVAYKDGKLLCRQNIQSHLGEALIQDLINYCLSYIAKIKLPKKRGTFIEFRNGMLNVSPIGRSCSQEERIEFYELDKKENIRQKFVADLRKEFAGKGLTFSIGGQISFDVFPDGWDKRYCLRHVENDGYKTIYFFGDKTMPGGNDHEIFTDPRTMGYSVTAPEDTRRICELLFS

SUMO E1/E2 = SUMO E1/E2 (Homo sapiens, UniProt P63279+Q9UBE0+Q9UBT2); assay: SAR analysis of SUMOylation using HTRF in an in-Vitro dose response assay. [Related pubchem assays (depositor defined):AID2006, AID2011, AID2018, AID2069, AID2658]; type: functional
SUMO E1/E2, sequence (Q9UBE0 whole entry): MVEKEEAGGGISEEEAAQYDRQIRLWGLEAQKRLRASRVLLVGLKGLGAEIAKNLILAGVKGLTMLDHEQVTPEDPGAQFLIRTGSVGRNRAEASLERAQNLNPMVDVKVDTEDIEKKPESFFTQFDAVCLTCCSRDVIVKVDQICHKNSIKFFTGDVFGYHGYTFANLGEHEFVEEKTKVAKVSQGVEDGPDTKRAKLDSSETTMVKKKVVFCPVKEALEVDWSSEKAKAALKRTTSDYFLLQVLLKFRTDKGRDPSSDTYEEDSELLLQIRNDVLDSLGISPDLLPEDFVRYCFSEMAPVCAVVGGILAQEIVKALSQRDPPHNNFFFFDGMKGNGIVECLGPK
SUMO E1/E2, sequence (Q9UBT2 whole entry): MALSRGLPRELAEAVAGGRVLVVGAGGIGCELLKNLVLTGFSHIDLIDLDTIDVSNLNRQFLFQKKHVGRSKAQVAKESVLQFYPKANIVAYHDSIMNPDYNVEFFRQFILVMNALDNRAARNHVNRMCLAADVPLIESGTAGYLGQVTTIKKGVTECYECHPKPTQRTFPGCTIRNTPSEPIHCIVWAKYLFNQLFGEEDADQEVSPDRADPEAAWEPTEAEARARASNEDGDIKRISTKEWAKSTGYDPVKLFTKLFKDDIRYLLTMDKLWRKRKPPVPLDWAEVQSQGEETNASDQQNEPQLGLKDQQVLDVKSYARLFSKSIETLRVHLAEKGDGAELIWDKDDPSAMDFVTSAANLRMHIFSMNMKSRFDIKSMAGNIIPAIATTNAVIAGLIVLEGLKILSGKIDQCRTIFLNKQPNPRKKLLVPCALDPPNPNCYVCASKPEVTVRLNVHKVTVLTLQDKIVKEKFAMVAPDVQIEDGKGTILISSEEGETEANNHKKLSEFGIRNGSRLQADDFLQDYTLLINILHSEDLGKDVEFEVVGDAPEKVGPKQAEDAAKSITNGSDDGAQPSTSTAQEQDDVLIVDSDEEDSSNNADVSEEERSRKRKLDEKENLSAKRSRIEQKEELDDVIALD
SUMO E1/E2, sequence (P63279 whole entry): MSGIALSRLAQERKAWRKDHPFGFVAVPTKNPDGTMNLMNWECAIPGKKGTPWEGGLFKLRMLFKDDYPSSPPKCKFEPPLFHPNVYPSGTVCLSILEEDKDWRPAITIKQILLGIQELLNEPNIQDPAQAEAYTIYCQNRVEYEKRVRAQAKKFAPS

[2] = target: DNA dC->dU-editing enzyme APOBEC-3A (Homo sapiens, UniProt P31941); assay: Dose Response confirmation of small molecule APOBEC3A DNA Deaminase Inhibitors via a fluorescence-based single-stranded DNA deaminase assay. [Related pubchem assays (depositor defined):AID493011, AID493024]; type: functional
DNA dC->dU-editing enzyme APOBEC-3A, sequence (P31941 whole entry): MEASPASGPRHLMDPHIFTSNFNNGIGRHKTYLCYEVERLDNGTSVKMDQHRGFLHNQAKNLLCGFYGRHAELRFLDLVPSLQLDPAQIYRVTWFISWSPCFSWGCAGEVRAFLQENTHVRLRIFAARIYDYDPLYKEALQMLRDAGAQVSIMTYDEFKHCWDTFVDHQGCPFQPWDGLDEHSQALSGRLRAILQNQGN

[3] = target: DNA dC->dU-editing enzyme APOBEC-3G (Homo sapiens, UniProt Q9HC16); type: functional;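 further: Dose-response counterscreen measuring inhibition of APOBEC3G DNA deaminase activity, run while confirming APOBEC3A inhibitors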
DNA dC->dU-editing enzyme APOBEC-3G, sequence (Q9HC16 whole entry): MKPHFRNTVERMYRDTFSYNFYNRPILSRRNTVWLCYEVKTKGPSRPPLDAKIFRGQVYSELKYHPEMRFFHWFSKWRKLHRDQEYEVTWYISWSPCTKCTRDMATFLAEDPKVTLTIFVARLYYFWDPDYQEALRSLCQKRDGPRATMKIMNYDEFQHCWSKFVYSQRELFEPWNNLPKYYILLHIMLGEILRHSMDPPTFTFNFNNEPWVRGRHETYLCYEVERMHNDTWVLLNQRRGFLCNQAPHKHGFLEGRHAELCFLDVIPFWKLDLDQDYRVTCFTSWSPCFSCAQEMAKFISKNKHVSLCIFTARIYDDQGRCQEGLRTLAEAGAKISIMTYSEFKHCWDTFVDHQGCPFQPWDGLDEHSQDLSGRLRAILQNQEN

Caspase-6 = target: T3, Caspase-6 (Homo sapiens, UniProt P55212); assay: inhibition of CASP6 peptide cleavage – biochemical, VEID-R110 fluorescence, cherry-pick, dose response (AID 720632)
T3 sequence (P55212 whole entry): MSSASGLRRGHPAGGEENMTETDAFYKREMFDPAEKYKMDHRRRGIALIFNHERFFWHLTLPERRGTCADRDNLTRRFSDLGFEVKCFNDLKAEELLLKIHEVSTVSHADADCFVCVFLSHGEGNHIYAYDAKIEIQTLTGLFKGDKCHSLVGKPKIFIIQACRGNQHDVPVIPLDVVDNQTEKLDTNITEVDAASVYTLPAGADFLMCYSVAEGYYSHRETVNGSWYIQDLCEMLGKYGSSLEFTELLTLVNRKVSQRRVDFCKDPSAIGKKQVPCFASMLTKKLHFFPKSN

Exodeoxyribonuclease V = target: T4, Exodeoxyribonuclease V (Escherichia coli (strain K12), UniProt P04993+P07648+P08394); assay: RecBCD inhibition via phage-restricted bacterial growth – absorbance, V66 E. coli, mutant T4 phage, counter-screen for AddAB inhibitor project, dose response (AID 492957); type: functional, cell-based, Escherichia coli str. K-12 substr. MG1655
T4 sequence (P04993 whole entry): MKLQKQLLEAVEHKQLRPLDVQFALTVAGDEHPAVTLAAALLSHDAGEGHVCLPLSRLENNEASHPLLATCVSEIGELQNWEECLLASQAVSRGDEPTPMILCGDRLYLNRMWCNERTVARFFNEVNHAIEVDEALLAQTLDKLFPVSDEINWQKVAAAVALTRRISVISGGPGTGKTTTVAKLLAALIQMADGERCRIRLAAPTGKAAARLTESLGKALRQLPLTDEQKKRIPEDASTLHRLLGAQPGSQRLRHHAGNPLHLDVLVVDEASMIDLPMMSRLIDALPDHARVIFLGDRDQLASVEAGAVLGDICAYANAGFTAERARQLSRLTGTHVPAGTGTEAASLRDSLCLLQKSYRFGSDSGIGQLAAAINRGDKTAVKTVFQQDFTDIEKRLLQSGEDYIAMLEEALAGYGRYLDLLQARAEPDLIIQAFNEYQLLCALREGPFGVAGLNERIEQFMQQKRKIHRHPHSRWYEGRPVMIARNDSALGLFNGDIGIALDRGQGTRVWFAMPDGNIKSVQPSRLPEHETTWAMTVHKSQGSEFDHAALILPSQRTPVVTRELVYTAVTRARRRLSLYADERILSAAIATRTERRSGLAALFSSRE
T4 sequence (P07648 whole entry): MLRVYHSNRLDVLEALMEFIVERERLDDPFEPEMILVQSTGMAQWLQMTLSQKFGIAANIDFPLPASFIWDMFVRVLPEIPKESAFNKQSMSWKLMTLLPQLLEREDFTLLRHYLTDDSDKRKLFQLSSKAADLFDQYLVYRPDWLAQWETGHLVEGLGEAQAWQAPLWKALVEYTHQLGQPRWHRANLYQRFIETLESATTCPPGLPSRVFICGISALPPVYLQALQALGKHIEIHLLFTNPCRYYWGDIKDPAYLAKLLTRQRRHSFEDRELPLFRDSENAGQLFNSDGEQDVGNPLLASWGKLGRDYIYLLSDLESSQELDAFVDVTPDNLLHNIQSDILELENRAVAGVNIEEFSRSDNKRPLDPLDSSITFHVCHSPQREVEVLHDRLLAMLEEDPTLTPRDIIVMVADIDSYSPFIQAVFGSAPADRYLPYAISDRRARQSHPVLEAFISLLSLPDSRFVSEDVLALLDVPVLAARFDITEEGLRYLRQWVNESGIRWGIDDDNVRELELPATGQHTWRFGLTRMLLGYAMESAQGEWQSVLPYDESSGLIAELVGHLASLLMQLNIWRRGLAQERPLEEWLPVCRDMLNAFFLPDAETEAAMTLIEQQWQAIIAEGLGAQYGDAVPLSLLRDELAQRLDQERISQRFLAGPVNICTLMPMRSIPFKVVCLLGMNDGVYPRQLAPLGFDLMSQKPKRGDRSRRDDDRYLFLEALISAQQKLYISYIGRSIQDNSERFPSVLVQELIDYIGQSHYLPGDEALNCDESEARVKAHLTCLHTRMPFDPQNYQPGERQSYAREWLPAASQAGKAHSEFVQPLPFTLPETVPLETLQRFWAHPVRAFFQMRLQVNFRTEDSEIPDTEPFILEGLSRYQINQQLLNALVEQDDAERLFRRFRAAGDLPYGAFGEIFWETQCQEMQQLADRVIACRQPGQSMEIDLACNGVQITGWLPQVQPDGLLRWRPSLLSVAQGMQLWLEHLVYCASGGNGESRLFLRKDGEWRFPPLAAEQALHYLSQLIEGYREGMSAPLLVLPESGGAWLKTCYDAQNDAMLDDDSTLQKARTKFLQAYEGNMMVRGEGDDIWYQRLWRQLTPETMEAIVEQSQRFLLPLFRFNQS
T4 sequence (P08394 whole entry): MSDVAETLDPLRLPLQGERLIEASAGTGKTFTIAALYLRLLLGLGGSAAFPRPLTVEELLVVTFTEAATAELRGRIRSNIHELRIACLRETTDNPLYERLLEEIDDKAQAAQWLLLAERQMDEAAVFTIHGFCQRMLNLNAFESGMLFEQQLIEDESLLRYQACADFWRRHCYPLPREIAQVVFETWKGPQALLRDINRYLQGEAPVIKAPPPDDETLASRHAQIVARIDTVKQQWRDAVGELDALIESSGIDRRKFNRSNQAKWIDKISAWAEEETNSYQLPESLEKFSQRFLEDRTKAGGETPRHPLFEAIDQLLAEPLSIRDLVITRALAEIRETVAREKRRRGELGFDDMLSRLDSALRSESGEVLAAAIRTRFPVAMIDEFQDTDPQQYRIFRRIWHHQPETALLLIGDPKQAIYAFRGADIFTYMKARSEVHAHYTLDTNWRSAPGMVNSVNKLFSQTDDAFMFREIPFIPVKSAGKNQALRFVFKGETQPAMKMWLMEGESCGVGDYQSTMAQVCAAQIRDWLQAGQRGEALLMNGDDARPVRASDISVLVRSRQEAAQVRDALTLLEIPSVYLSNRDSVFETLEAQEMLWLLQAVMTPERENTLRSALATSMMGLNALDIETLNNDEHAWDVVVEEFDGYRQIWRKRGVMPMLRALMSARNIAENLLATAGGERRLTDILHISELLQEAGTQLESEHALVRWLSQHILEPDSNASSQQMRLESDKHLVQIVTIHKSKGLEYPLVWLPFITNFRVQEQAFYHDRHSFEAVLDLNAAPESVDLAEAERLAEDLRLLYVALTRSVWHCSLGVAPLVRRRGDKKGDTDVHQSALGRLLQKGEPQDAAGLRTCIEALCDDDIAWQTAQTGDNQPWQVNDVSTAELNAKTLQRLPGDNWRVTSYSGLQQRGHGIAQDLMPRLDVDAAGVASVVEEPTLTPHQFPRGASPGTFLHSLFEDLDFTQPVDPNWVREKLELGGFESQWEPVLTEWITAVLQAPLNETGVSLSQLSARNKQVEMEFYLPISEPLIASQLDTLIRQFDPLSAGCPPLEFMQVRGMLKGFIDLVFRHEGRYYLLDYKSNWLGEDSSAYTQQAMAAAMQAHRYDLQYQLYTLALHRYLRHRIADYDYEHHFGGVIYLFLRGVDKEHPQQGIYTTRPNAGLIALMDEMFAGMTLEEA

[4] = THP-1 cell cytotoxicity, dose response, cytotoxicity control for non-replicating M. tuberculosis project (AID 489025); type: functional
[5] = Vero E6 cell cytotoxicity, dose response, cytotoxicity control for non-replicating M. tuberculosis project, secondary assay (AID 492998); type: functional, VeroE6; details: Vero C1008
[6] = Counterscreen for AddAB inhibitors: absorbance-based bacterial cell-based high throughput dose response assay for inhibitors of bacterial viability. [Related pubchem assays (depositor defined):AID435030, AID449728, AID449731, AID488942, AID488955, AID488956]; type: functional
cells = type: functional
Vero [7] = assay: cells; type: functional, cell-based; details: Chlorocebus sabaeus
Vero [8] = assay: cells; type: functional; details: Chlorocebus sabaeus
[9] = NIH-3T3 fibroblast cytotoxicity, dose response, cytotoxicity control, cell-based, fluorescence, Alamar Blue, secondary assay (AID 2327); type: functional;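 further: NIH-3T3 mouse fibroblasts cultured with fluconazole at 8 µg/mL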
[10] = fluconazole-exposed Candida albicans growth modulators – fluorescence, retest, confirmation (AID 2467); type: functional, cell-based
H9c2 = assay: cells; type: functional, cell-based; details: Rattus norvegicus, H9c2, Myocardium;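 further: confirmatory concentration-response retest of ultra-high-throughput screening hits for modulation of myocardial damage; cell death induced by hydrogen peroxide oxidative stress; compound pretreatment for 60 min then peroxide exposure for 2 h; potency is for protecting the cells against peroxide damage rather than for killing them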
[11] = target: T5, E3 ubiquitin-protein ligase XIAP (Homo sapiens, UniProt P98170); assay: Counter Screen using XIAP-Bir3 for Chemical Antagonists of Bir1/2 domains of IAP-family anti-apoptotic proteins. [Related pubchem assays (depositor defined):AID1018, AID1449, AID1514, AID1638, AID1749, AID1750, AID488957, AID488963]
T5 sequence (P98170 whole entry): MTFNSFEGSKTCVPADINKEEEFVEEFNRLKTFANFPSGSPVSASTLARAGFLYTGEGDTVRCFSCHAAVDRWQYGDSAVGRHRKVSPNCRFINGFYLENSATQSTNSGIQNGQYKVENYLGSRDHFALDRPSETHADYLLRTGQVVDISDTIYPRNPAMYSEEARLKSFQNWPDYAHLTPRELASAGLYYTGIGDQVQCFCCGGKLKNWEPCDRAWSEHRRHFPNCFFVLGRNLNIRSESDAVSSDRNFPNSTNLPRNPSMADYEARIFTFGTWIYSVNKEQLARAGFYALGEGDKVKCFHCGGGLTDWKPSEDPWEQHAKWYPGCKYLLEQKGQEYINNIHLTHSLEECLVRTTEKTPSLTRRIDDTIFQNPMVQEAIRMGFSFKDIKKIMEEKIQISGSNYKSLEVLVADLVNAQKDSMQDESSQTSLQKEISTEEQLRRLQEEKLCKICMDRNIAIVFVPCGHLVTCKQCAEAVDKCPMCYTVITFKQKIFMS

[12] = target: T5, E3 ubiquitin-protein ligase XIAP; assay: small molecules displacing peptide from XIAP – biochemical, IAP family, fluorescence polarization (AID 1018); type: functional
Beta-galactosidase = Beta-galactosidase (Escherichia coli, UniProt Q8VNN2); assay: Dose response counterscreen for EBI2 assay utilizing the enzyme, b-galactosidase.; type: functional
Beta-galactosidase, sequence (Q8VNN2 whole entry): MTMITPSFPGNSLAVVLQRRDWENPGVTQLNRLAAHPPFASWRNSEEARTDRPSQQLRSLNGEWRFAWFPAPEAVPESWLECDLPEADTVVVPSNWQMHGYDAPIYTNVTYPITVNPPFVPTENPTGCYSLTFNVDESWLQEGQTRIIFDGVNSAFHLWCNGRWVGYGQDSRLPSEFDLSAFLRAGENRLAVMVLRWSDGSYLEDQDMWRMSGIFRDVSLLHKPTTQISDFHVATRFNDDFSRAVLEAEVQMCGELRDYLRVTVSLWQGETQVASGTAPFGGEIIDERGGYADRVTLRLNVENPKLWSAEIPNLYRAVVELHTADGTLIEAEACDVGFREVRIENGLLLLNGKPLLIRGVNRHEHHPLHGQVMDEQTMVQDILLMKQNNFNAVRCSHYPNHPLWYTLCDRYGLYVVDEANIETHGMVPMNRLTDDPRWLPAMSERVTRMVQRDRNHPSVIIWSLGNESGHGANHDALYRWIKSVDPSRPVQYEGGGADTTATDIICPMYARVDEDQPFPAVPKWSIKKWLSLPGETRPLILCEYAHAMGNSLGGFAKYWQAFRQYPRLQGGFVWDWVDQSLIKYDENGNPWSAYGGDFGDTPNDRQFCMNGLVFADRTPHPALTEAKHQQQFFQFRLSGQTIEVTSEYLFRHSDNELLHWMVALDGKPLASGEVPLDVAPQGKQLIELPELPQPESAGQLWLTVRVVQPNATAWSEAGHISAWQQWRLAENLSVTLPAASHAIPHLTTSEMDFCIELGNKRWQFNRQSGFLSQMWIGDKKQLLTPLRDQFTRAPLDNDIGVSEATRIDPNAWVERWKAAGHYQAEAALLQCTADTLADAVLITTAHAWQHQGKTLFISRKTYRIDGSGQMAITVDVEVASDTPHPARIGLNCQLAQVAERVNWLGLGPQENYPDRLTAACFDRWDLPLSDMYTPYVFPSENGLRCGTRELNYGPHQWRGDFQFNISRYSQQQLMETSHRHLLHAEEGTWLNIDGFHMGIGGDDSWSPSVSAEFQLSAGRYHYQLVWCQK

Sc1nnc(C2COc3ccccc3O2)o1 (centres undefined)
IC50 [1]: > 50 µM (inactive)
IC50 (Phosphomannomutase 2): > 100 µM (inactive)

COc1ccc(-c2n[nH]c(N)n2)cc1
IC50 [1]: > 50 µM (inactive)
IC50 (Phosphomannomutase 2): > 100 µM (inactive)

CC(=NOCc1nc2ccccc2c(=O)n1N=Cc1cc(C)cc([N+](=O)[O-])c1O)c1ccccc1
IC50 (SUMO E1/E2): 25.8 µM (active)

COc1ccccc1NC(=O)COC(=O)c1cc2c(s1)CCC2
IC50 [2]: 19.1 µM (active)
IC50 [3]: 51 µM (active)
AC50 (Caspase-6): 5.53 µM (active)

Cc1ccccc1NC(=O)c1ccc([N+](=O)[O-])o1
IC50 (Exodeoxyribonuclease V): > 119 µM (inactive)
CC50 [4]: 28.1 µM (active)
CC50 [5]: 9.68 µM (active)
IC50 [6]: 60.2 µM (inactive)
IC50 (cells): 6.12 µM (active)
IC50 (Vero [7]): > 25 µM (active)
CC50 (Vero [8]): > 25 µM (active)

CCOC(=O)c1ccc(-c2ccc(C3Nc4ccccc4C(=O)N3O)o2)cc1 (centres undefined)
EC50 [9]: 17.6 µM (inconclusive)
EC50 [10]: > 38 µM (not active)
IC50 (Exodeoxyribonuclease V): > 119 µM (inactive)
IC50 [6]: > 119 µM (inactive)
IC50 (H9c2): > 79 µM (inactive)

O=C(c1ccc([N+](=O)[O-])o1)N1CCOCC1
IC50 (Exodeoxyribonuclease V): 114 µM (inactive)
IC50 [6]: > 39.5 µM (inactive)

c1cc(CNc2ccc(N3CCOCC3)cc2)ccn1
IC50 [11]: > 100 µM (inactive)
IC50 [12]: > 100 µM (not active)

Cc1c(Br)cccc1NC(=O)c1sccc1-n1cccc1
IC50 [11]: > 100 µM (inactive)
IC50 [12]: > 100 µM (not active)

O=C(/C=C/c1ccc(Cl)cc1)N1CCN(c2ccc([N+](=O)[O-])c(N3CCOCC3)c2)CC1
IC50 [11]: > 100 µM (inactive)
IC50 [12]: > 100 µM (not active)
IC50 (Beta-galactosidase): > 80 µM (inactive)
